Data reported in publication PMC6446940 (ChemMedChem, 2018).

Columns and labels:
[1] = target: HIV-1 Reverse Transcriptase (RT) (Human immunodeficiency virus type 1 group M subtype B, UniProt P04585); experiment: biochemical; assay type: biochemical
[2] = tested on: pseudovirus HIV-1HXB2; experiment: Single-cycle infection assay in TZM-bl cells; settings: for antiviral activity (in words): SAR discussion of Table 1
[3] = Cytotoxicity; assay type: cell-based, human; settings: human, MT-2 cells, MT-2 CC50, MT-2 cells, MTS; mean ± SD, n=3
[4] = Cytotoxicity; assay type: cell-based; settings: human, TZM-bl cells, TZMb-l CC50, TZM-bl cells, 3 days, MTS; mean ± SD, n=3
[5] = tested on: HIV-1IIIB; experiment: Multi-cycle infection assay in MT-2 cells; assay type: cell-based; settings: read-out: MT-2 IC50, p24, mean ± SD, n=3
[6] = tested on: MT-2 cells; experiment: Cytotoxicity; assay type: cell-based, human; settings: read-out: MT-2 CC50, MTS, mean ± SD, n=3
[7] = tested on: TZM-bl cells; experiment: Cytotoxicity; assay type: cell-based; settings: for CC50: read-out: TZMb-l CC50, TZM-bl cells, 3 days, MTS, mean ± SD, n=3; for cytotoxicity higher compared with the parent compounds: compared with NBD-14122 / NBD-14123; for cytotoxicity became higher: di-fluoro at position 2 of 1,3-benzodioxole, versus non-fluorinated compounds

For `CC1(C)CC(NC(=O)C(=O)Nc2ccc(Cl)cc2)CC(C)(C)N1` [NBD-556, reference compound], the IC50 ([1]; HIV-1 Reverse Transcriptase, mean ± SD, n=3) was over 300 µM and the “activity against HIV-1 RT” value ([1]; at 300 μM) was “no activity”.

With `Cc1nc(C(CN)NC(=O)C(=O)Nc2ccc3c(c2)OCO3)sc1CO` (stereo not drawn) [NBD-14108, N1-(2-amino-1-(5-(hydroxymethyl)-4-methylthiazol-2-yl)ethyl)-N2-(benzo[d][1,3]dioxol-5-yl)oxalamide] the “antiviral activity (in words)” value [2] was “completely lost”, the CC50 at 4 days [3] was at least 650 µM and the CC50 at 3 days [4] was at least 750 µM.

For `Cc1nc(C(CN)NC(=O)c2ccc(-c3ccc4c(c3)OCO4)[nH]2)sc1CO` (stereo not drawn) [NBD-14111, N-(2-amino-1-(5-(hydroxymethyl)-4-methylthiazol-2-yl)ethyl)-5-(benzo[d][1,3]dioxol-5-yl)-1H-pyrrole-2-carboxamide], the “antiviral activity (in words)” value [2] was “lost its antiviral activity”, the IC50 [5] was 9.8 ± 4.8 µM and the CC50 [6] was 170 ± 9 µM. The CC50 [7] was 146 ± 5.2 µM.

`Cc1nc(C(NC(=O)c2ccc(-c3ccc4c(c3)OCO4)[nH]2)C(C)(C)N)sc1CO` (stereo not drawn) [NBD-14116, N-(2-amino-1-(5-(hydroxymethyl)-4-methylthiazol-2-yl)-2-methylpropyl)-5-(benzo[d][1,3]dioxol-5-yl)-1H-pyrrole-2-carboxamide] showed a CC50 at 4 days [3] of 98 ± 2.2 µM and a CC50 at 3 days [4] of 55.2 ± 5.4 µM.

`Cc1nc(C(NC(=O)c2ccc(-c3ccc4c(c3)OCO4)[nH]2)C(C)(C)N)sc1CO` (stereo not drawn) [NBD-14117, N-(2-amino-1-(5-(hydroxymethyl)-4-methylthiazol-2-yl)-2-methylpropyl)-5-(benzo[d][1,3]dioxol-5-yl)-1H-pyrrole-2-carboxamide] gave an IC50 [5] of 2.5 ± 1 µM, a CC50 [6] of 98 ± 1.5 µM and a CC50 [7] of 66.9 ± 1.4 µM.

For `CC(C)(N)C(NC(=O)c1ccc(-c2ccc3c(c2)OCO3)[nH]1)c1ncc(CO)s1` (stereo not drawn) [NBD-14118, N-(2-amino-1-(5-(hydroxymethyl)thiazol-2-yl)-2-methylpropyl)-5-(benzo[d][1,3]dioxol-5-yl)-1H-pyrrole-2-carboxamide], the CC50 at 4 days [3] was 123 ± 10.5 µM and the CC50 at 3 days [4] was 64.3 ± 3.7 µM.

With `CC(C)(N)C(NC(=O)c1ccc(-c2ccc3c(c2)OCO3)[nH]1)c1ncc(CO)s1` (stereo not drawn) [NBD-14119, N-(2-amino-1-(5-(hydroxymethyl)thiazol-2-yl)-2-methylpropyl)-5-(benzo[d][1,3]dioxol-5-yl)-1H-pyrrole-2-carboxamide] the “improvement in antiviral activity/potency compared with NBD-14123” value [2] was ~ 2.3 fold, the IC50 [5] was 2.8 ± 0.9 µM and the CC50 [6] was 106 ± 4.4 µM. The CC50 [7] was 69.2 ± 3.8 µM.

`NCC(NC(=O)c1ccc(-c2ccc3c(c2)OCO3)[nH]1)c1ncc(CO)s1` (stereo not drawn) [NBD-14122, N-(2-amino-1-(5-(hydroxymethyl)thiazol-2-yl)ethyl)-5-(benzo[d][1,3]dioxol-5-yl)-1H-pyrrole-2-carboxamide] gave an IC50 [5] of 5.1 ± 0.4 µM, a CC50 [6] of 183 ± 3 µM and a CC50 [7] of 154.4 ± 1.5 µM.

With `NCC(NC(=O)c1ccc(-c2ccc3nsnc3c2)[nH]1)c1ncc(CO)s1` (stereo not drawn) [NBD-14126, N-(2-amino-1-(5-(hydroxymethyl)thiazol-2-yl)ethyl)-5-(benzo[c][1,2,5]thiadiazol-5-yl)-1H-pyrrole-2-carboxamide] the “improvement in antiviral activity compared with NBD-14122” value [2] was “about 2.8 fold”, the CC50 at 4 days [3] was 117 ± 4.3 µM and the “cytotoxicity higher compared with the parent compounds” value [7] was “about 1.5 fold”. For the same compound, the CC50 at 3 days [4] was 79.9 ± 1 µM.

For `NCC(NC(=O)c1ccc(-c2ccc3nsnc3c2)[nH]1)c1ncc(CO)s1` (stereo not drawn) [NBD-14127, N-(2-amino-1-(5-(hydroxymethyl)thiazol-2-yl)ethyl)-5-(benzo[c][1,2,5]thiadiazol-5-yl)-1H-pyrrole-2-carboxamide], the “improvement in antiviral activity/potency compared with NBD-14123” value [2] was ~ 1.6 fold, the IC50 [5] was 7.3 ± 1.5 µM and the CC50 [6] was 137 ± 1.5 µM. For the same compound, the “cytotoxicity higher compared with the parent compounds” value [7] was “about 1.5 fold” and the CC50 [7] was 96.7 ± 2.9 µM.

With `CC1(C)Oc2ccc(-c3ccc(C(=O)NC(CN)c4ncc(CO)s4)[nH]3)cc2O1` (stereo not drawn) [NBD-14133, N-(2-amino-1-(5-(hydroxymethyl)thiazol-2-yl)ethyl)-5-(2,2-dimethylbenzo[d][1,3]dioxol-5-yl)-1H-pyrrole-2-carboxamide] the “antiviral activity (in words)” value [2] was “lost their antiviral potency”, the CC50 at 4 days [3] was 96.5 ± 1.2 µM and the CC50 at 3 days [4] was 64 ± 1.2 µM.

For `CC1(C)Oc2ccc(-c3ccc(C(=O)NC(CN)c4ncc(CO)s4)[nH]3)cc2O1` (stereo not drawn) [NBD-14134, N-(2-amino-1-(5-(hydroxymethyl)thiazol-2-yl)ethyl)-5-(2,2-dimethylbenzo[d][1,3]dioxol-5-yl)-1H-pyrrole-2-carboxamide], the “antiviral activity (in words)” value [2] was “lost their antiviral potency”, the IC50 [5] was 15.3 ± 5 µM and the CC50 [6] was 89.3 ± 1.3 µM. For the same compound, the CC50 [7] was 61.1 ± 1.4 µM.

`CNCC(NC(=O)c1ccc(-c2ccc3c(c2)OCO3)[nH]1)c1ncc(CO)s1` (stereo not drawn) [NBD-14139, 5-(benzo[d][1,3]dioxol-5-yl)-N-(1-(5-(hydroxymethyl)thiazol-2-yl)-2-(methylamino)ethyl)-1H-pyrrole-2-carboxamide] showed a CC50 at 4 days [3] of 178 ± 8 µM and a CC50 at 3 days [4] of 149 ± 11.3 µM.

`CNCC(NC(=O)c1ccc(-c2ccc3c(c2)OCO3)[nH]1)c1ncc(CO)s1` (stereo not drawn) [NBD-14140, 5-(benzo[d][1,3]dioxol-5-yl)-N-(1-(5-(hydroxymethyl)thiazol-2-yl)-2-(methylamino)ethyl)-1H-pyrrole-2-carboxamide] gave an IC50 [5] of 9.32 ± 2.8 µM, a CC50 [6] of 173 ± 8 µM and a CC50 [7] of 153 ± 11.5 µM.

In the case of `NCC(NC(=O)c1ccc(-c2ccc3c(c2)OC(F)(F)O3)[nH]1)c1ncc(CO)s1` (stereo not drawn) [NBD-14144, N-(2-amino-1-(5-(hydroxymethyl)thiazol-2-yl)ethyl)-5-(2,2-difluorobenzo[d][1,3]dioxol-5-yl)-1H-pyrrole-2-carboxamide], the “improvement in antiviral activity compared with NBD-14122” value [2] is reported as ~ 4.5 fold, the CC50 at 4 days [3] is reported as 43.4 ± 3.6 µM and the cytotoxicity became higher [7] is reported as ~ 3.9 fold. The CC50 at 3 days [4] was 37.9 ± 2.4 µM.

In the case of `NCC(NC(=O)c1ccc(-c2ccc3c(c2)OC(F)(F)O3)[nH]1)c1ncc(CO)s1` (stereo not drawn) [NBD-14145, N-(2-amino-1-(5-(hydroxymethyl)thiazol-2-yl)ethyl)-5-(2,2-difluorobenzo[d][1,3]dioxol-5-yl)-1H-pyrrole-2-carboxamide], the “improvement in antiviral activity” value ([2]; di-fluoro at position 2 of 1,3-benzodioxole, comparator not stated) is reported as ~ 1.7 fold, the IC50 [5] is reported as 3.1 ± 0.5 µM and the CC50 [6] is reported as 41 ± 2.7 µM. For the same compound, the cytotoxicity became higher [7] was ~ 3.9 fold and the CC50 [7] was 38.7 ± 1.3 µM.

`CNCC(NC(=O)c1ccc(-c2ccc3c(c2)OCO3)[nH]1)c1nc(CO)cs1` (stereo not drawn) [NBD-14158, 5-(benzo[d][1,3]dioxol-5-yl)-N-(1-(4-(hydroxymethyl)thiazol-2-yl)-2-(methylamino)ethyl)-1H-pyrrole-2-carboxamide] gave an IC50 [5] of 9.5 ± 0.5 µM, a CC50 at 4 days [3] of 192 ± 4.2 µM and a CC50 at 3 days [4] of 157 ± 7.8 µM.

With `NCC(NC(=O)c1ccc(-c2ccc3c(c2)OCO3)[nH]1)c1nc(CO)cs1` (stereo not drawn) [NBD-14172, N-(2-amino-1-(4-(hydroxymethyl)thiazol-2-yl)ethyl)-5-(benzo[d][1,3]dioxol-5-yl)-1H-pyrrole-2-carboxamide] the “improvement in antiviral activity/potency compared with NBD-14123” value [2] was “about 1.5 fold”, the IC50 [5] was 2.4 ± 0.3 µM and the CC50 at 4 days [3] was 156 ± 14.3 µM. For the same compound, the CC50 at 3 days [4] was 92.3 ± 2.9 µM.

For `NCC(NC(=O)c1ccc(-c2ccc3c(c2)OCO3)[nH]1)c1nc(CO)cs1` (stereo not drawn) [NBD-14173, N-(2-amino-1-(4-(hydroxymethyl)thiazol-2-yl)ethyl)-5-(benzo[d][1,3]dioxol-5-yl)-1H-pyrrole-2-carboxamide], the IC50 [5] was 8.2 ± 2.7 µM, the CC50 [6] was 176 ± 4.3 µM and the CC50 [7] was 105 ± 7.9 µM.
